Data: article PMC9833666, “Designing and identifying β-hairpin peptide macrocycles with antibiotic potential” (Science Advances, 2023)
Where two headings read alike, the source gives them in different places. Bridge positions count the residues as written; N and C are the ends. Ends that are not written are not given here. Peptide text beside a SMILES is read from it.

Assays:
[1] = test system: Single-donor human red blood cells; assay: Hemolysis assay; assay type: cell-based; conditions: hemolysis at 128 µg/ml, fold change relative to SySA-5
Procedure, shortened: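 Peptides at 300 μg/ml (SySA library) or 128 μg/ml (SySA-5 optimization library) were incubated in triplicate with washed single-donor RBCs (1 × 10^9 cells/ml) for 3 h at 37 °C. Supernatant A540 was background-normalized to PBS and expressed relative to 1% Triton X-100 (100% hemolysis).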

[2] = test system: Acinetobacter baumannii AB5075; conditions: for AB5075 MIC FBS: 100% fetal bovine serum; for AB5075 MIC MH: Mueller-Hinton
[3] = High-resolution LC-MS, percentage with intramolecular disulfide bond (%S-S); assay type: physicochemical
Protocol: Stock peptides were diluted into PBS (pH 7.4) at 0.1 mg/ml in a volume of 150 μl and placed into 2-ml autosampler vials with small volume inserts (Fisherbrand, 03-391-8). Samples were separated by a C8 LC column, and an extracted ion chromatogram was generated for the most prevalent charge state isotopes. Mass spectra were generated for each extracted LC peak using an Agilent Technologies 6546 Accurate Mass quadrupole orthogonal acceleration–time-of-flight LC-MS instrument. Analysis was performed using Agilent MassHunter Qualitative software v10. The isotope distribution for each LC peak from each sample was compared to predicted distributions created using Agilent’s Isotope Distribution Calculator. Percentages of molecules with disulfide bonds was determined by comparing the area under the curve for each LC peak containing a disulfide bond over the total area of all relevant peaks (sum area %) and reported as a mean of three technical replicates ± 1 SD.

Escherichia coli W3110 = assay type: cell-based; conditions: for Ec W3110 MIC MH: E. coli W3110, MH medium; for W3110 MIC MHII: E. coli W3110, MHII medium; for Ec W3110 MIC RPMI: E. coli W3110, RPMI medium
E. coli W3110 = assay: Surface-localized antimicrobial display (SLAY), log2 fold change in reads; assay type: cell-based, Escherichia coli; conditions: 3 h 37°C; for l2FC_IPTG_15: induced (15 μM IPTG, low induction) vs uninduced; for l2FC_IPTG_100: induced (100 μM IPTG, high induction) vs uninduced
Protocol: SLAY procedures have been detailed previously ([25], [26]). Briefly, 100 μl of E. coli W3110 frozen cells containing the pooled SynCH plasmid library were recovered in 10 ml of LB supplemented with carbenicillin (75 μg/ml) for 2 hours. The culture was then back-diluted to an OD of 0.05, and three triplicate 5-ml cultures were set up in LB supplemented with carbenicillin (75 μg/ml). Triplicate reactions included uninduced (0 μM IPTG), low induction (15 μM IPTG), and high induction (100 μM IPTG). All triplicate cultures were then grown for 3 hours at 37°C. Plasmids from each triplicate culture were isolated via Miniprep, and Illumina sequencing primers (see table S6) were used to produce an amplicon via PCR from plasmids from each culture containing a unique i7 barcode identifier. Amplicons were then gel extracted, cleaned, concentrated, and sent to Genewiz for next-generation sequencing by Illumina HiSeq technology with 30% added Phi-X DNA.
Methods of SLAY analysis have been previously described elsewhere. Here, raw sequencing reads were trimmed of adapter sequences using Flexbar ([30]) and then assessed for quality via FastQC ([31]). Next, trimmed reads were mapped to a reference derived from all possible SynCH sequences using Kallisto ([32]). Last, log2 fold change estimates and other relevant statistics were calculated using DESeq2 ([33]).

Compound | Fold Change Hemolysis [1] | AB5075 MIC FBS ([2]; replicate 1) | AB5075 MIC FBS ([2]; replicate 2) | AB5075 MIC FBS ([2]; replicate 3) | AB5075 MIC MH ([2]; replicate 1) | AB5075 MIC MH ([2]; replicate 2) | AB5075 MIC MH ([2]; replicate 3) | l2FC_IPTG_15 (E. coli W3110) | l2FC_IPTG_100 (E. coli W3110) | also measured
CC(C)C[C@@H]1NC(=O)[C@H](CO)NC(=O)[C@H](C(C)C)NC(=O)[C@@H]2CSSC[C@H](NC(=O)[C@H](CC(C)C)NC(=O)[C@H](CCCNC(=N)N)NC(=O)[C@H](C(C)C)NC(=O)[C@H](CCCNC(=N)N)NC(=O)[C@H](CC(C)C)NC(=O)[C@@H](N)CSSC[C@@H](C(=O)O)NC(=O)[C@H](C(C)C)NC(=O)[C@H](CCCNC(=N)N)NC1=O)C(=O)N[C@@H](CCCNC(=N)N)C(=O)N[C@@H](CCCNC(=N)N)C(=O)N[C@@H](CCCNC(=N)N)C(=O)N2 [SySA-5.21] (H-CLRVRLCRRRCVSLRVC-OH; disulfide 1-17, 7-11 (inferred); N-terminus and C-terminus assumed) | 2.4 | 128 µg/mL | >128 µg/mL | >128 µg/mL | 16 µg/mL | 16 µg/mL | 32 µg/mL | – | – | –
CC(C)C[C@@H]1NC(=O)[C@H](CCCNC(=N)N)NC(=O)[C@H](C(C)C)NC(=O)[C@@H]2CSSC[C@H](NC(=O)[C@H](CC(C)C)NC(=O)[C@H](CCCNC(=N)N)NC(=O)[C@H](C(C)C)NC(=O)[C@H](CCCNC(=N)N)NC(=O)[C@H](CC(C)C)NC(=O)[C@@H](N)CSSC[C@@H](C(=O)O)NC(=O)[C@H](C(C)C)NC(=O)[C@H](CCCNC(=N)N)NC1=O)C(=O)N[C@@H](CCCNC(=N)N)C(=O)N[C@@H](CCCNC(=N)N)C(=O)N[C@@H](CCCNC(=N)N)C(=O)N2 [SySA-5.22] (H-CLRVRLCRRRCVRLRVC-OH; disulfide 1-17, 7-11 (inferred); N-terminus and C-terminus assumed) | 2.1 | 64 µg/mL | 64 µg/mL | 64 µg/mL | 32 µg/mL | 8 µg/mL | 32 µg/mL | – | – | –
CC(C)C[C@@H]1NC(=O)[C@H](CCCNC(=N)N)NC(=O)[C@H](C(C)C)NC(=O)[C@H](CCCCN)NC(=O)[C@H](CCCNC(=N)N)NC(=O)[C@H](CCCNC(=N)N)NC(=O)[C@H](CCCNC(=N)N)NC(=O)[C@H](CCCNC(=N)N)NC(=O)[C@H](CCCNC(=N)N)NC(=O)[C@H](CC(C)C)NC(=O)[C@H](CCCNC(=N)N)NC(=O)[C@H](C(C)C)NC(=O)[C@H](CCCNC(=N)N)NC(=O)[C@@H](N)CSSC[C@@H](C(=O)O)NC(=O)[C@H](CCCNC(=N)N)NC1=O [SySA-5.25] (H-CRVRLRRRRRKVRLRC-OH; disulfide 1-16) | 1.5 | – | – | – | – | – | – | – | – | AB5075 MIC FBS ([2]; median of triplicate): > 128 µg/mL; AB5075 MIC MH ([2]; median of triplicate): 32 µg/mL
CC(C)C[C@@H]1NC(=O)[C@H](CCCNC(=N)N)NC(=O)[C@H](C(C)C)NC(=O)[C@@H]2CSSC[C@H](NC(=O)[C@H](CC(C)C)NC(=O)[C@H](CCCNC(=N)N)NC(=O)[C@H](C(C)C)NC(=O)[C@H](CCCNC(=N)N)NC(=O)[C@@H](N)CSSC[C@@H](C(=O)O)NC(=O)[C@H](CCCNC(=N)N)NC1=O)C(=O)N[C@@H](CCCNC(=N)N)C(=O)N[C@@H](CCCNC(=N)N)C(=O)N[C@@H](CCCNC(=N)N)C(=O)N[C@@H](CCCNC(=N)N)C(=O)N2 [SySA-5.26] (H-CRVRLCRRRRCVRLRC-OH; disulfide 1-16, 6-11 (inferred); N-terminus and C-terminus assumed) | 0.8 | >128 µg/mL | >128 µg/mL | >128 µg/mL | 8 µg/mL | 8 µg/mL | 8 µg/mL | – | – | –
CC(C)C[C@@H]1NC(=O)[C@H](CCCNC(=N)N)NC(=O)[C@@H]2CSSC[C@H](NC(=O)[C@H](CCCNC(=N)N)NC(=O)[C@H](C(C)C)NC(=O)[C@H](CCCNC(=N)N)NC(=O)[C@@H](N)CSSC[C@@H](C(=O)O)NC(=O)[C@H](CCCNC(=N)N)NC1=O)C(=O)N[C@@H](CCCNC(=N)N)C(=O)N[C@@H](CCCNC(=N)N)C(=O)N[C@@H](CCCNC(=N)N)C(=O)N[C@@H](CCCNC(=N)N)C(=O)N[C@@H](CCCNC(=N)N)C(=O)N[C@@H](CCCCN)C(=O)N2 [SySA-5.27] (H-CRVRCRRRRRKCRLRC-OH; disulfide 1-16, 5-12 (inferred); N-terminus and C-terminus assumed) | 0.6 | >128 µg/mL | >128 µg/mL | >128 µg/mL | 128 µg/mL | 128 µg/mL | 128 µg/mL | – | – | –
CC(C)C[C@@H]1NC(=O)[C@H](CO)NC(=O)[C@H](C(C)C)NC(=O)[C@H](CCCCN)NC(=O)[C@H](C(C)C)NC(=O)[C@H](CCCNC(=N)N)NC(=O)[C@H](CCCNC(=N)N)NC(=O)[C@H](CCCNC(=N)N)NC(=O)CNC(=O)[C@H](CC(N)=O)NC(=O)[C@H](CC(N)=O)NC(=O)[C@H](CC(C)C)NC(=O)[C@H](CCCNC(=N)N)NC(=O)[C@H](C(C)C)NC(=O)[C@H](CCCNC(=N)N)NC(=O)[C@H](C(C)C)NC(=O)[C@@H](N)CSSC[C@@H](C(=O)O)NC(=O)[C@H](C(C)C)NC(=O)[C@H](CCC(N)=O)NC1=O [SySA-26] (H-CVRVRLNNGRRRVKVSLQVC-OH; disulfide 1-20; N-terminus and C-terminus assumed) | – | – | – | – | – | – | – | – | – | %S-S [3]: 100%; Ec W3110 MIC MH (Escherichia coli W3110): 16 µg/mL; W3110 MIC MHII (Escherichia coli W3110): > 128 µg/mL; Ec W3110 MIC RPMI (Escherichia coli W3110): 16 µg/mL; W3110 MIC MH (Escherichia coli W3110): 16 µg/mL; W3110 MIC RPMI (Escherichia coli W3110): 16 µg/mL
CC(C)C[C@@H]1NC(=O)CNC(=O)[C@H](CCCNC(=N)N)NC(=O)[C@H](CCCNC(=N)N)NC(=O)[C@H](CCCNC(=N)N)NC(=O)[C@H](CC(N)=O)NC(=O)[C@H](CC(N)=O)NC(=O)[C@H](CC(C)C)NC(=O)[C@H](CCCNC(=N)N)NC(=O)[C@H](C(C)C)NC(=O)[C@H](CCCNC(=N)N)NC(=O)[C@H](C(C)C)NC(=O)[C@@H](N)CSSC[C@@H](C(=O)O)NC(=O)[C@H](C(C)C)NC(=O)[C@H](CCC(N)=O)NC(=O)[C@H](CC(C)C)NC(=O)[C@H](CO)NC(=O)[C@H](C(C)C)NC(=O)[C@H](CCCNC(=N)N)NC1=O [SySA-29] (H-CVRVRLNNRRRGLRVSLQVC-OH; disulfide 1-20; N-terminus and C-terminus assumed) | – | – | – | – | – | – | – | – | – | %S-S [3]: 100%; Ec W3110 MIC MH (Escherichia coli W3110): 16 µg/mL; W3110 MIC MHII (Escherichia coli W3110): > 128 µg/mL; Ec W3110 MIC RPMI (Escherichia coli W3110): 8 µg/mL; W3110 MIC MH (Escherichia coli W3110): 16 µg/mL; W3110 MIC RPMI (Escherichia coli W3110): 8 µg/mL
CC[C@H](C)[C@@H]1NC(=O)[C@H](CCCCN)NC(=O)[C@H](CC(C)C)NC(=O)CNC(=O)[C@H](CCCNC(=N)N)NC(=O)[C@H](CCCNC(=N)N)NC(=O)[C@H](CCCNC(=N)N)NC(=O)[C@H](CC(N)=O)NC(=O)[C@H](CC(N)=O)NC(=O)[C@H](CC(C)C)NC(=O)[C@H](CCCNC(=N)N)NC(=O)[C@H](C(C)C)NC(=O)[C@H](CCCNC(=N)N)NC(=O)[C@H](CC(C)C)NC(=O)[C@@H](N)CSSC[C@@H](C(=O)O)NC(=O)[C@H](C(C)C)NC(=O)[C@H](CCC(N)=O)NC(=O)[C@H](CC(C)C)NC(=O)[C@H](CO)NC1=O [SySA-61] (H-CLRVRLNNRRRGLKISLQVC-OH; disulfide 1-20; N-terminus and C-terminus assumed) | – | – | – | – | – | – | – | – | – | %S-S [3]: 91.5%; Ec W3110 MIC MH (Escherichia coli W3110): 32 µg/mL; W3110 MIC MHII (Escherichia coli W3110): > 128 µg/mL; Ec W3110 MIC RPMI (Escherichia coli W3110): 8 µg/mL; W3110 MIC MH (Escherichia coli W3110): 32 µg/mL; W3110 MIC RPMI (Escherichia coli W3110): 8 µg/mL
CLRIRVDDRRRRVRITLQVC (disulfide 1-20 (inferred)) | – | – | – | – | – | – | – | 0.055 | 0.322 | –
CLRIRVNDRRRGVKITLEVC (disulfide 1-20 (inferred)) | – | – | – | – | – | – | – | 0.457 | 0.630 | –
CRIKIDVDDGRRRVRLELQC (disulfide 1-20 (inferred)) | – | – | – | – | – | – | – | 0.041 | 0.249 | –
CRIKINIDDRGGTVKLEVQC (disulfide 1-20 (inferred)) | – | – | – | – | – | – | – | -0.180 | -0.210 | –
CVTIRVDNGGGGLRITLQVC (disulfide 1-20 (inferred)) | – | – | – | – | – | – | – | -0.299 | 0.025 | –
